According to patent US7514457B2, “Substituted aryloxymethyl bicyclicmethyl acetamide compounds” (Pfizer Inc., priority 2005, dated 2009):
pIC50: −log10 of the molar value.

The molecules below were run against human VR1 (Homo sapiens, UniProt Q8NER1) (assay: Human VR1 antagonist assay (Ca2+ imaging)). Details: Ca2+ imaging in human VR1 expressing cells; agonist stimulation (capsaicin 300 nM or acid pH 5.8) not given.
Assay type: cell-based
From the text: VR1 antagonistic activity can be determined by the Ca^2+ imaging assay using human VR1 highly expressing cells. The cells that highly express human VR1 receptors are obtainable from several different conventional methods. The one standard method is cloning from human Dorsal Root Ganglion (DRG) or kidney according to the methods such as described in the journal article; Nature, 389, pp816-824, 1997. Alternatively VR1 receptors highly expressing human keratinocytes are also known and published in the journal article (Biochemical and Biophysical Research Communications, 291, pp124-129, 2002). […] Furthermore, the method to up regulate human VR1 gene, which is usually a silent gene or don't produce detectable level of VR1 receptors, is also available to obtain propriety cells. Such genetic modification method was described in detail; Nat. Biotechnol., 19, pp440-445, 2001.
The cells that express human VR1 receptors were maintained in culture flask at 37° C. in an environment containing 5% CO2 until use in the assay. The intracellular Ca^2+ imaging assay to determine VR1 antagonistic activities were done by following procedures.
The culture medium was removed from the flask and fura-2/AM fluorescent calcium indicator was added to the flask at a concentration of 5 μM in the medium. The flask was placed in CO2 incubator and incubated for 1 hour. Then the cells expressing the human VR1 receptors were detached from the flask follow by washing with phosphate buffer saline, PBS(−) and re-suspended in assay buffer. The 80 μl of aliquot of cell suspension (3.75×10^5 cells/ml) was added to the assay plate and the cells were spun down by centrifuge (950 rpm, 20° C., 3 minutes).
The capsaicin-induced changes in the intracellular calcium concentration were monitored using FDSS 6000 (Hamamatsu Photonics, Japan), a fluorometric imaging system. The cell suspension in Krebs-Ringer HEPES (KRH) buffer (115 mM NaCl, 5.4 mM KCl, 1 mM MgSO4, 1.8 mM CaCl2, 11 mM D-Glucose, 25 mM HEPES, 0.96 mM Na2HPO4, pH 7.3) were pre-incubated with varying concentrations of the test compounds or KRH buffer (buffer control) for 15 minutes at room temperature under the dark condition. Then capsaicin solution, which gives 300 nM in assay mixture, was automatically added to the assay plate by the FDSS 6000.
The Acid-induced changes in the intracellular calcium concentration were monitored using FDSS 6000 (Hamamatsu Photonics, Japan), a fluorometric imaging system. The cell suspension in resting buffer (HBSS supplemented with 10 mM HEPES, pH 7.4) were pre-incubated with varying concentrations of the test compounds or resting buffer (buffer control) for 15 minutes at room temperature under the dark condition. The cells were automatically added the stimulating solution (HBSS supplemented with MES, final assay buffer pH5.8) by the FDSS 6000.
The monitoring of the changes in the fluorescence signals (λex=340 nm/380 nm, λem=510-520 nm) was initiated at 1 minute prior to the addition of capsaicin solution or acidic buffer and continued for 5 minute.
The compounds of the examples were tested in the Human VR1 antagonist assay described above.

Sequence of human VR1 (Q8NER1 whole entry): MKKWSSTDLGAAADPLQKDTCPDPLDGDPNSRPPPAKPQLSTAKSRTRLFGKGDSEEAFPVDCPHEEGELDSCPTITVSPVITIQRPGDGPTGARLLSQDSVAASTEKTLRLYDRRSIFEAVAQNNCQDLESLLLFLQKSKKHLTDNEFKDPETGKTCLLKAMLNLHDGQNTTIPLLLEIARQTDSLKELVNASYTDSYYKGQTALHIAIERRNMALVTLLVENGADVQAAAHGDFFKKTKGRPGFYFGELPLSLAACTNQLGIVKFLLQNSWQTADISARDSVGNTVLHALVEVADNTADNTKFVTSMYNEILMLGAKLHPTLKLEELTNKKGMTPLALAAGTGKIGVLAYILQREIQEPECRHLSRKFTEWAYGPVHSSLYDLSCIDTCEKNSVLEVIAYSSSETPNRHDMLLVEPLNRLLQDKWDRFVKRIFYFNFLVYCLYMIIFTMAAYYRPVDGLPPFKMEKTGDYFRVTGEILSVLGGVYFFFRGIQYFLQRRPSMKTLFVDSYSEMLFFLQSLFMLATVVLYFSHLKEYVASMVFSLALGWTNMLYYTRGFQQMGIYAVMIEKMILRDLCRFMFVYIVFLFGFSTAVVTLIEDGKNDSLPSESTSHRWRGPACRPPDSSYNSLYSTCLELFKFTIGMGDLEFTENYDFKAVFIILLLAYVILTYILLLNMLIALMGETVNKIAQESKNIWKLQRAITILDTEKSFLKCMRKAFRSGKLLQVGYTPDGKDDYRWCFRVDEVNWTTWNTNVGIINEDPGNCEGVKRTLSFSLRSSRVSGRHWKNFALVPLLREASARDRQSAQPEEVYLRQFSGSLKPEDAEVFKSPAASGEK

pIC50 | Compound
6.46 to 6.60 | Oc1cc2c(cc1O)CN(C(=S)NCCc1ccc(Cl)cc1)CCC2 [Capsazepine, reference compound]
6.38 | CC(C)(C)c1ccc(OCC(=O)NCc2ccc3[nH]c(=O)[nH]c3c2)cc1 [Example 1, 2-(4-tert-Butylphenoxy)-N-[(2-oxo-2,3-dihydro-1H-benzimidazol-5-yl)methyl]acetamide]
6.95 | CC(C)(C)c1ccc(OCC(=O)NCc2ccc3[nH]c(=O)[nH]c3c2)cc1F [Example 2, 2-(4-tert-butyl-3-fluorophenoxy)-N-[(2-oxo-2,3-dihydro-1H-benzimidazol-5-yl)methyl]acetamide]
7.01 | CC(C)(C)c1c(F)cc(OCC(=O)NCc2ccc3[nH]c(=O)[nH]c3c2)cc1F [Example 3, 2-(4-tert-butyl-3,5-difluorophenoxy)-N-[(2-oxo-2,3-dihydro-1H-benzimidazol-5-yl)methyl]acetamide]
7.07 | CC(C)(C)c1ccc(OCC(=O)NCc2ccc3[nH]c(=O)[nH]c3c2)cc1Cl [Example 4, 2-(4-tert-Butyl-3-chlorophenoxy)-N-[(2-oxo-2,3-dihydro-1H-benzimidazol-5-yl)methyl]acetamide]
6.34 | Cn1c(=O)[nH]c2cc(CNC(=O)COc3ccc(C(C)(C)C)cc3)ccc21 [Example 5, 2-(4-tert-butylphenoxy)-N-[(1-methyl-2-oxo-2,3-dihydro-1H-benzimidazol-5-yl)methyl]acetamide]
6.76 | Cn1c(=O)[nH]c2cc(CNC(=O)COc3ccc(C(C)(C)C)c(Cl)c3)ccc21 [Example 7, 2-(4-tert-butyl-3-chlorophenoxy)-N-[(1-methyl-2-oxo-2,3-dihydro-1H-benzimidazol-5-yl)methyl]acetamide]
6.32 | Cn1c(=O)[nH]c2ccc(CNC(=O)COc3ccc(C(C)(C)C)c(Cl)c3)cc21 [Example 8, 2-(3-chloro-4-tert-butylphenoxy)-N-[(3-methyl-2-oxo-2,3-dihydro-1H-benzimidazol-5-yl)methyl]acetamide]
6.32 | CC(C)(C)c1ccc(OCC(=O)NCc2ccc3c(c2)CC(=O)N3)cc1Cl [Example 9, 2-(3-chloro-4-tert-butylphenoxy)-N-[(2-oxo-2,3-dihydro-1H-indol-5-yl)methyl]acetamide]
6.38 | CC(C)(C)c1ccc(OCC(=O)NCc2ccc3[nH]c(=O)oc3c2)cc1Cl [Example 10, 2-(3-chloro-4-tert-butylphenoxy)-N-[(2-oxo-2,3-dihydro-1,3-benzoxazol-6-yl)methyl]acetamide]
7.30 | CC(NC(=O)COc1cc(F)c(C(C)(C)C)c(F)c1)c1ccc2[nH]c(=O)[nH]c2c1 (stereo not drawn) [Example 13, 2-(4-tert-Butyl-3,5-difluorophenoxy)-N-[1-(2-oxo-2,3-dihydro-1H-benzimidazol-5-yl)ethyl]acetamide]
7.51 | C[C@@H](NC(=O)COc1cc(F)c(C(C)(C)C)c(F)c1)c1ccc2nn[nH]c2c1 [Example 14, N-[(1R)-1-(1H-1,2,3-Benzotriazol-6-yl)ethyl]-2-(4-tert-butyl-3,5-difluorophenoxy)acetamide]
7.15 | CC(NC(=O)COc1cc(F)c(C(C)(C)C)c(F)c1)c1ccc2ncsc2c1 (stereo not drawn) [Example 15, N-[1-(1,3-benzothiazol-6-yl)ethyl]-2-(4-tert-butyl-3,5-difluorophenoxy)acetamide]

Compound | pIC50
CC(C)(C)c1ccc(OCC(=O)NCc2ccc3[nH]cnc3c2)cc1 [Example 11, 2-(4-tert-butylphenoxy)-N-(1H-benzindazol-5-ylmethyl)acetamide] | 6.08
CC(C)(C)c1ccc(OCC(=O)NCc2ccc3[nH]cnc3c2)cc1 [Example 12, N-(1H-benzimidazol-5-ylmethyl)-2-(4-tert-butylphenoxy)acetamide] | 6.54
